According to patent US20150342954A1, “2-BENZYL, 3-(PYRIMIDIN-2-YL) SUBSTITUTED PYRAZOLES USEFUL AS SGC STIMULATORS” (IRONWOOD PHARMACEUTICALS, INC., priority 2011, published 2015):
Like-named read-outs stand apart in the source and are kept apart here.

Legend:
[1] = tested on: lambs with acute pulmonary hypertension; details: cited from earlier work; for pulmonary vasodilation / effect on mean arterial pressure / transpulmonary cGMP release / systemic arterial oxygenation: inhaled microparticles, awake lambs, U-46619 infusion; for pulmonary vasodilation: mean pulmonary arterial pressure 35 mm Hg
[2] = target: T1, soluble guanylate cyclase (sGC) (Homo sapiens, UniProt Q02108+Q02153); assay: sGC-HEK-cGMP assay (run with SNP incubation); assay type: cell-based; details: for Emax: Table 3A, 10 μM SNP, 100% = 30 μM BAY 41-2272 with 10 μM SNP, read-out: HEK assay Emax-unconstrained (Percent); for HEK MEC-10: concentration that would elicit 10% of the Emax in the presence of 10 μM SNP; for HEK MEC-10 / EC50: Table 3D; for EC50: in the presence of 10 μM SNP
T1 construct: endogenously expressing soluble guanylate cyclase (sGC); endogenous in cells; host or cells: HEK293
T1 sequence (Q02153 1-619): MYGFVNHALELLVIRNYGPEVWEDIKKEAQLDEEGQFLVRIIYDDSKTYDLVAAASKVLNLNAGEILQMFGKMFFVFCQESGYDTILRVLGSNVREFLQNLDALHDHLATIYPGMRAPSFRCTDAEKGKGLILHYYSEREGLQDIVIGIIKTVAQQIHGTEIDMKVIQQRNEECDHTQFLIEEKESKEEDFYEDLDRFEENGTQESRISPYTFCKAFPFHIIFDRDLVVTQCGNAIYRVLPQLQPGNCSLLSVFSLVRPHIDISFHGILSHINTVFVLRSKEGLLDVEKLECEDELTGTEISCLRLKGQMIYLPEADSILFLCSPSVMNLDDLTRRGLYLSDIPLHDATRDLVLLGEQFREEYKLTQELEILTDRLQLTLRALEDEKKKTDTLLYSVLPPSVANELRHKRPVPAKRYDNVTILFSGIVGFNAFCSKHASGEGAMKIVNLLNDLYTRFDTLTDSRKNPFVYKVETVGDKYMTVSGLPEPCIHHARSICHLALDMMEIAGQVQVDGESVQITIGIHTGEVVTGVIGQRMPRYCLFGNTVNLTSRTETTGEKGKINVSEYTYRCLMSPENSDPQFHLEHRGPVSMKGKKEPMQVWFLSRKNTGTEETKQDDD
T1 sequence (Q02108 1-690): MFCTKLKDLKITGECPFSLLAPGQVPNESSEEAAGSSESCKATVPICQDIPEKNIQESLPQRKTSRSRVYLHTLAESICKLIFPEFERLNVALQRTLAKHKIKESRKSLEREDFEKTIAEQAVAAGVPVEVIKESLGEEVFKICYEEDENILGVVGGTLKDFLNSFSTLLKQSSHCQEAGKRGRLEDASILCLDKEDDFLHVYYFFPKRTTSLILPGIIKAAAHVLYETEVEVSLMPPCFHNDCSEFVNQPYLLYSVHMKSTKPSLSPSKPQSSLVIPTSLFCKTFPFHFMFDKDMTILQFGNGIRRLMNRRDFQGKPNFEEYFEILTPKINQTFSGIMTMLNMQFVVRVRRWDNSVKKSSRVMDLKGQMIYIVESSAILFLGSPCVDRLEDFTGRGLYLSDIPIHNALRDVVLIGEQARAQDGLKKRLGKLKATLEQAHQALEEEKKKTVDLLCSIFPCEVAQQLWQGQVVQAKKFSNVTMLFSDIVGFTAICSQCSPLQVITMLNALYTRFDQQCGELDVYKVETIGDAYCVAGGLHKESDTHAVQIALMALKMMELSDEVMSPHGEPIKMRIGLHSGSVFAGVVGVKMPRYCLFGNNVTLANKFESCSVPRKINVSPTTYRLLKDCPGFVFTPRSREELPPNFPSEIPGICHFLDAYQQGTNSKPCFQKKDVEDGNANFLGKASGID
Procedure, shortened: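 HEK293 cells with endogenous sGC were pre-treated 15 min at 37 °C with 0.5 mM IBMX, then exposed to test compound plus sodium nitroprusside for 10 min at 37 °C. Cells were lysed in 0.1 M HCl (4 °C, 30 min), and cGMP was quantified by LC/MS against a standard curve. EC50 values came from concentration-response curves.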

Thoracic aortic rings = assay: Alternative thoracic aortic rings assay (Example 5; original resting tension as 100% inhibition); details: rat thoracic aortic rings contracted with phenylephrine; for Aortic Ring Percent Relaxation at 1 μM: compound at 1 μM; for Aortic Ring Percent Relaxation at 3 μM: compound at 3 μM; for Aortic Ring Percent Relaxation at 10 μM: compound at 10 μM; for EC50: read-out: Aortic Ring EC50
Experimental: Thoracic aortic rings were dissected from anesthetized (isoflurane) male Sprague-Dawley rats weighing 275-299 g. Tissues were immediately transferred to ice-cold Krebs-Henseleit solution, which had been aerated with 95% 02 and 5% CO2 for 30 minutes. Following removal of connective tissue, aortic sections were cut into 4 rings (˜2 mm each) and suspended on 2 L-shaped hooks, with one hook fixed at the bottom of the tissue bath (Schuler Organ Bath, Harvard Apparatus) and the other connected to a force transducer (F30 Force Transducer, Harvard Apparatus). Baths contained Krebs Henseleit solution (10 mL) heated to 37° C. and aerated with 95% 02 and 5% CO2. Rings were brought to an initial tension of 0.3-0.5 g and gradually raised to a resting tension of 1.0 g over 60 minutes. Rings were rinsed with Krebs Henseleit solution (heated to 37° C. and aerated with 95% 02 and 5% CO2) at 15 minute intervals until a stable baseline was obtained. Rings were considered to be stable after a resting tension of 1.0 g was maintained (for approximately 10 minutes) without need for adjustment. Rings were then contracted with 100 ng/mL phenylephrine by adding 100 μL of a 10 μg/mL phenylephrine stock solution. Tissues achieving a stable contraction were then treated in a cumulative, dose dependent manner with test compounds prepared in dimethylsulfoxide (DMSO). In some cases, tissues were rinsed three times over a 5 minute period with Krebs-Heinseleit's solution (heated to 37° C. and aerated with 95% 02 and 5% CO2), allowed to stabilize at baseline, and then used for characterization of other test articles or DMSO effects. All data were collected using the HSE-ACAD software provided by Harvard Apparatus. […] EC50 values were calculated from concentration-response curves generated with GraphPad Prism Software.
Biological Activity Measurement by the Thoracic Aortic Rings Assay
The biological data for some of a compound of Table I, in comparison with the known compound, BAY 41-2272, as the reference compound, determined by the thoracic aorta ring assay of Example 5 are presented in Table 6 below.

[3] = tested on: Guinea pig tracheal smooth muscle (GPTSM); assay: Electrical field stimulated guinea pig tracheal smooth muscle in vitro (ex vivo) model of bronchodilation; details: Cavia porcellus; guinea pig tracheal strips, sub-maximal EFS; 95% CI 0.78-0.94; read-out: IC50, inhibition of EFS-induced tracheal smooth muscle contraction
Description: Electrical Field Stimulated Guinea Pig Tracheal Smooth Muscle In Vitro (Ex Vivo) Model for the Assessment of Bronchodilation.
It is possible to assess the bronchodilating effects of sGC stimulators by using the system described below. This system allowed us to determine potency, efficacy and duration of action of several sGC stimulators, as well as to assess potential side effects such as blood pressure, or heart rate changes. […]
On each experimental day, a guinea pig was killed by exposure to a rising concentration of CO2 and the trachea removed. […] Tissues were washed with Kreb's buffer and stimulated using the previously determined sub-maximal voltage for 1 hour to establish a stable baseline contraction prior to assessment of compound activity.
A cumulative dose response curve (DRC) to each test substance was then performed and changes in smooth muscle contraction measured. The effect of each test substance in each experiment was expressed as a percentage inhibition of the baseline contraction, normalized to the relevant vehicle controls. […] The data from all three experiments was pooled, the DRC plotted, and the test substance potency and efficacy determined.

[4] = top of concentration-response curve not fitted to 100%
[5] = top of concentration-response curve not fitted to 100%, read-out: HEK assay EC50-unconstrained

SMILES	pulmonary vasodilation [1]	effect on mean arterial pressure [1]	transpulmonary cGMP release [1]	magnitude and duration of pulmonary vasodilation induced by iNO ([1]; after inhaling the microparticles, lambs)	systemic arterial oxygenation [1]	pulmonary vasodilation and transpulmonary cGMP release after treatment with ODQ ([1]; inhaled microparticles after intravenous ODQ, lambs)	Emax [2, 4] [%]	HEK MEC-10 [2]	EC50 ([2]; read-out: HEK assay EC50) [nM]	EC50 [2, 5] [nM]	Aortic Ring Percent Relaxation at 1 μM (Thoracic aortic rings)	Aortic Ring Percent Relaxation at 3 μM (Thoracic aortic rings)	Aortic Ring Percent Relaxation at 10 μM (Thoracic aortic rings)	EC50 (Thoracic aortic rings) [nM]	IC50 [3] [nM]
Nc1nc(-c2nn(Cc3ccccc3F)c3ncccc23)ncc1C1CC1 [BAY 41-2272]	dose dependent pulmonary vasodilation	without significant effect on mean arterial pressure	increased transpulmonary cGMP release												
Nc1nc(-c2nn(Cc3ccccc3F)c3ncccc23)nc(N)c1N1CCOCC1 [BAY 41-8543]	dose dependent pulmonary vasodilation	without significant effect on mean arterial pressure	increased transpulmonary cGMP release	augmented	increased systemic arterial oxygenation										
O=C(O)CCCCN(CCc1ccccc1OCc1ccc(CCc2ccccc2)cc1)Cc1ccc(C(=O)O)cc1 [BAY 58-2667]	dose dependent pulmonary vasodilation	without significant effect on mean arterial pressure	increased transpulmonary cGMP release		increased systemic arterial oxygenation	greatly enhanced									
Oc1nc(-c2cc(-c3ccon3)n(Cc3cccc(F)c3F)n2)ncc1F [Compound 1]							60 to 80	B (0.01 to <0.1 μM)	< 20000	10 to 500	F (80 to <100%)	G (100 to <120%)	G (100 to <120%)	< 2000	
CC1(C(=O)Nc2cnc(-c3cc(-c4ccon4)n(Cc4cccc(F)c4F)n3)nc2N)CC1 [Compound 10]							100 to 120	A (0.001 to <0.01 μM)	< 20000	10 to 500	G (100 to <120%)	G (100 to <120%)	G (100 to <120%)	< 2000	
N#CC1(C(=O)Nc2cnc(-c3cc(-c4ncco4)n(Cc4ccccc4F)n3)nc2N)CC1 [Compound 47, N-(4-amino-2-(1-(2-fluorobenzyl)-5-(oxazol-2-yl)-1H-pyrazol-3-yl)pyrimidin-5-yl)-1-cyanocyclopropanecarboxamide]							100 to 120	B (0.01 to <0.1 μM)	< 20000	10 to 500	E (60 or <80%)	F (80 to <100%)	G (100 to <120%)	< 2000	
CC(C)[N+]1(C)[C@@H]2CC[C@H]1C[C@@H](OC(=O)C(CO)c1ccccc1)C2 (some centres unmarked) [Ipratropium bromide]															0.86
